Where a name gives a salt, the structure may show the parent alone.
Key:
[1] = CaCo-2 permeability assay Alt 1 (pH gradient 6.5/7.4); type: in vitro ADME; conditions: human, Alt 1: apical to basolateral, pH 6.5 apically, pH 7.4 basolaterally, typically 10 μM, mean value
Protocol: (§1) CaCo-2 Cell Permeability Assay
(§2) CaCo-2 cells were seeded onto filter membrane at a density of 340500 cells/cm2 for 24 well plates (0.33 cm2/well). The cells were grown in culture medium consisting of Dulbecco's modified Eagle's medium with glucose and L-glutamine supplemented with 10% fetal bovine serum, 100 U/ml penicillin-G, and 100 μg/ml streptomycin and 1% (v/v) 100X non-essential amino acids. The culture medium was replaced every second day and the cells were maintained at 37° C., 95% relative humidity, and 5% CO2. Permeability studies were conducted with the monolayers cultured for 21-28 days with the cell passage numbers between 25 and 50.
Alt 1. the CaCo-2 Permeability Assay Used in Examples 3, 5, 6 and Reference Example.
The CaCo-2 permeabilty assay were performed in the apical to basolateral directions under gradient pH-gradient conditions (pH 6.5 apically, pH 7.4 basolaterally). HBSS containing 25 mM HEPES (pH 7.4) and 25 mM MES (pH 6.5) was used as transport medium. Fully differentiated cell monolayers were washed with transport medium. The drug solutions, typically 10 μM, were prepared in transport medium, pH 6.5 (1% DMSO). The permeability experiment was started by adding 0.2 ml drug solutions on the apical side. The basolateral side contained 0.8 ml of transport medium, pH 7.4. Three inserts with cells and one without were assayed for each drug. Cells were kept in an incubator at 37° C. and shaking. 200 μl samples were taken at 45 and 90 min from the basolateral side. The same volume of transport buffer was added to the basolateral compartments after the first sampling. Compound recovery was assessed by calculating the sum of the cumulatively transported amount and the amount left in the donor side against the initial amount of drug. The samples were analysed online using liquid chromatography tandem mass spectrometry (LC/MS/MS). […] The samples of 25 μl were analysed by liquid scintillation.
(§3) The apparent permeability coefficient is calculated as follows: […]

Cdk2/cyclin E = Cdk2/cyclin E (Homo sapiens, UniProt P24941); test: ATP competition in scintillation proximity Cdk2 assay; type: biochemical; conditions: mean value; Ki calculated with Km of ATP 0.5 μM
Protocol: Determination of ATP Competition in Scintillation Proximity Cdk2 Assay.
The competiton experiments were carried out in duplicate with 10 concentrations of the inhibitor in 96 well clear-bottom microtiter plates. Cdk2/cyclin E enzyme was added at a concentration corresponding to a 80 times dilution of the partially purified bacluloviral infected insect cell lysate in a buffer containing 50 mmol/L HEPES, 10 mmol/L MnCl2, 1 mmol/L dithiothreitol (DTT), 100 μmol/L NaF, 100 μmol/L sodium vanadate, 10 mmol/L sodium glycerophosphate, 5 μg/mL aprotinin, 2.5 μg/mL leupeptin and 100 μmol/L PMSF, pH 7.5. Blank controls without enzyme were used. The reaction was initiated by the addition of 1.25 μg GST-Rb, 0.15 μCi [γ-33P]ATP and unlabelled ATP at a final concentration of 0.1 μmol/L. The final assay volume was 50 μL. After incubation for 60 min at room temperature, each reaction was terminated by the addition of 150 μL stop solution containing 45 μL protein A coated SPA beads in 50 mmol/L HEPES, 3.28 mg antiglutathione-S-transferase, and 5.5 mmol/L EDTA and 35 μmol/L ATP. The plate was centrifuged at 2000 rpm for 5 min and the radioactivity was determined in a liquid scintillation counter (1450 MicroBeta Trilux, Perkin Elmer, Finland). The Km value of ATP for Cdk2 used to calculate the inhibition constants (Ki) of the various compounds, was 0.5 μM

recombinant human GSK3β = target: T1, recombinant human GSK3β (Homo sapiens, UniProt P49841); test: ATP competition in scintillation proximity GSK3β assay; type: biochemical; conditions: for Ki: mean value, Ki calculated with Km of ATP 20 μM; for Selectivity GSK3β vs CDK2: ratio of CDK2 Ki to GSK3β Ki
T1 construct: purchased Dundee University, UK
T1 sequence (P49841 whole entry): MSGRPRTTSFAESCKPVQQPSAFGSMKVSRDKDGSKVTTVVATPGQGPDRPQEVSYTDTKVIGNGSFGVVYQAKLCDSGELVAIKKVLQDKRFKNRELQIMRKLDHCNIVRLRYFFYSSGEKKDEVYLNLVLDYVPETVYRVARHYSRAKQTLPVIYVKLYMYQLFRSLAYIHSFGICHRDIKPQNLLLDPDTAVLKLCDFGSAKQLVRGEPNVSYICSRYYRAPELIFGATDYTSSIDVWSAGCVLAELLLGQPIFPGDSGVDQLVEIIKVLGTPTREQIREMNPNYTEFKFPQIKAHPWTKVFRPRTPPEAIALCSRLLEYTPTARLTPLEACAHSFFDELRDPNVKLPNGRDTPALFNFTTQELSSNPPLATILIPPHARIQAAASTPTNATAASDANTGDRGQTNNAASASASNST
Protocol: Determination of ATP Competition in Scintillation Proximity GSK3β Assay.
The inhibition experiments were carried out in duplicate with 10 concentrations of the inhibitor in 384 well clear-bottom microtitre plates. A biotinylated peptide substrate (Biotin-Ala-Ala-Glu-Glu-Leu-Asp-Ser-Arg-Ala-Gly-Ser(PO3H2)-Pro-Gln-Leu (AstraZeneca, Lund)), was added at a final concentration of 1 mmol/L in an assay buffer (pH 7.0) containing 0.1 mU recombinant human GSK3β (Dundee University, UK), (1 nmol/L active enzyme), 10 mmol/L morpholinepropanesulfonic acid (MOPS), 0.3 mmol/L EDTA, 0.01% (v/v) β-mercaptoethanol, 0.003% (w/v) polyethylene 23 lauryl ether (Brij 35), 0.4% glycerol and 0.02 mg bovine serum albumine (BSA) and preincubated for 10 minutes. The reaction was initiated by the addition of 0.06 mCi [γ-33P]ATP (Amersham, UK) and unlabelled ATP in 30 mmol/L Mg(Ac)2 to a final concentration of […] ATP. The final assay volume was […]. Blank controls without peptide substrate were used. After incubation for 15 min at room temperature, the reaction was terminated by the addition of stop solution containing 1.3 mmol/L EDTA, 13 mmol/L ATP, 0.02% Triton™X-100 and 0.15 mg streptavidin coated SPA beads. After a 5 minutes centrifugation at 2000 rpm, the radioactivity was measured in a liquid scintillation counter (1450 MicroBeta Trilux, Perkin Elmer, Finland). The Km value of ATP for GSK3β, used to calculate the inhibition constants (Ki) of the various compounds, was 20 μM.

[2] = CaCo-2 A to B permeability assay Alt 2 (pH 7.4); type: in vitro ADME; conditions: human, Alt 2: apical to basolateral, pH 7.4, 10 μM, mean value
Protocol: as §1, §2
Alt 2. the CaCo-2 A to B Permeability Assay Used in Examples 2-4, 7-8.
The CaCo-2 A to B assay was performed in the apical to basolateral direction (each in duplicates) at pH 7.4. HBSS containing 25 mM HEPES (pH 7.4) was used as transport medium. The drug solutions, typically 10 μM, were prepared in transport medium (1% DMSO). Studies of six compounds can be performed in one 24 well plate that generates one 96 deepwell analysis plate (maximum capacity 6 plates=36 compounds and 6 deep well plates). The CaCo-2 cell monolayers were washed once with HBSS for 10 minutes prior to start. Transport buffer, 800 μL, (HBSS, pH 7.4) is first dispensed to the basal side of the monolayer. The assay is then initiated by addition of 225 μL of each compound (10 μM) to the apical side. Samples are withdrawn directly (Donor 0) and at 60 min (Donor end and Receiver 60) post addition of test compound. 25 μL and 150 μL are withdrawn from the donor compartment and the receiver compartment, respectively. During washing-step and incubation with compounds the transwell plates are placed in a shaking incubator at 480 rpm and 37° C. The integrity of the epithelial cell monolayer is monitored by measuring the amount of radiolabelled [^14C]mannitol (low passive paracellular diffusion) in the donor compartment at time 0 min to 60 min. Luma Plate 96-well is used for analysis of [14C]mannitol. Compound recovery was assessed by calculating the sum of the cumulatively transported amount and the amount left in the donor side against the initial amount of drug. The samples were analysed online using liquid chromatography tandem mass spectrometry (LC/MS/MS).
as §3
where ΔQ/Δt is the total amount of substance transported into the receiver chamber per unit time, A is the surface area (cm^2), and C0 the starting donor concentration. The apparent permeability Papp is expressed in ×10-6 cm/sec.

| melting point | Ki (Cdk2/cyclin E) | Ki (recombinant human GSK3β) | Selectivity GSK3β vs CDK2 (recombinant human GSK3β) | Selectivity GSK3β vs CDK2 (recombinant human GSK3β; hydrochloride) | Compound | Papp A→B at 90 min, 10 µM [1] | Papp A→B at 60 min, 10 µM [2] |
| --- | --- | --- | --- | --- | --- | --- | --- |
| 177 °C |  |  |  |  | Cc1ncc(-c2nc(Nc3cc(F)c(CN4CCOCC4)cc3F)ncc2F)n1C1CCOCC1 (as salt: succinate) [Ex 5, N-(2,5-Difluoro-4-(morpholinomethyl)phenyl)-5-fluoro-4-(2-methyl-1-(tetrahydro-2H-pyran-4-yl)-1H-imidazol-5-yl)pyrimidin-2-amine] |  |  |
|  | 308 nM | 15 nM | 20 |  | Cc1ncc(-c2nc(Nc3ccc(CN4CCOCC4)cc3F)ncc2F)n1C1CCOCC1 [Ex 1, 5-Fluoro-N-(2-fluoro-4-(morpholinomethyl)phenyl)-4-(2-methyl-1-(tetrahydro-2H-pyran-4-yl)-1H-imidazol-5-yl)pyrimidin-2-amine] | 36 ×10⁻⁶ cm/s |  |
|  | 290 nM | 5 nM | 58 |  | Cc1ncc(-c2nc(Nc3ccc(CN4CCOC[C@H]4C)cc3F)ncc2F)n1C1CCOCC1 [Ex 2, 5-Fluoro-N-(2-fluoro-4-(((R)-3-methylmorpholino)methyl)phenyl)-4-(2-methyl-1-(tetrahydro-2H-pyran-4-yl)-1H-imidazol-5-yl)pyrimidin-2-amine hydrochloride] |  | 39 ×10⁻⁶ cm/s |
|  | 940 nM | 30 nM | 31 |  | Cc1ncc(-c2nc(Nc3ccc(CN4CCOC[C@@H]4C)cc3F)ncc2F)n1C1CCOCC1 [Ex 3, 5-Fluoro-N-(2-fluoro-4-(((S)-3-methylmorpholino)methyl)phenyl)-4-(2-methyl-1-(tetrahydro-2H-pyran-4-yl)-1H-imidazol-5-yl)pyrimidin-2-amine hydrochloride] |  | 56 ×10⁻⁶ cm/s |
|  | 318 nM | 11 nM | 29 |  | Cc1ncc(-c2nc(Nc3ccc(CN4[C@@H](C)COC[C@@H]4C)cc3F)ncc2F)n1C1CCOCC1 [Ex 4, N-(4-(((3S,5S)-3,5-Dimethylmorpholino)methyl)-2-fluorophenyl)-5-fluoro-4-(2-methyl-1-(tetrahydro-2H-pyran-4-yl)-1H-imidazol-5-yl)pyrimidin-2-amine hydrochloride] |  | 44 ×10⁻⁶ cm/s |
|  | 127 nM | 4.9 nM | 26 |  | Cc1ncc(-c2nc(Nc3cc(F)c(CN4CCOCC4)cc3F)ncc2F)n1C1CCOCC1 [Ex 5, N-(2,5-Difluoro-4-(morpholinomethyl)phenyl)-5-fluoro-4-(2-methyl-1-(tetrahydro-2H-pyran-4-yl)-1H-imidazol-5-yl)pyrimidin-2-amine] | 45 ×10⁻⁶ cm/s |  |
|  | 133 nM | 4.9 nM |  | 27 | Cc1ncc(-c2nc(Nc3cc(F)c(CN4CCOCC4)cc3F)ncc2F)n1C1CCOCC1 [Ex 6, N-(2,5-Difluoro-4-(morpholinomethyl)phenyl)-5-fluoro-4-(2-methyl-1-(tetrahydro-2H-pyran-4-yl)-1H-imidazol-5-yl)pyrimidin-2-amine hydrochloride] |  |  |
|  | 175 nM | 11 nM | 16 |  | Cc1ncc(-c2nc(Nc3cc(F)c(CN4CCOC[C@@H]4C)cc3F)ncc2F)n1C1CCOCC1 [Ex 7, N-(2,5-Difluoro-4-(((S)-3-methylmorpholino)methyl)phenyl)-5-fluoro-4-(2-methyl-1-(tetrahydro-2H-pyran-4-yl)-1H-imidazol-5-yl)pyrimidin-2-amine] |  | 44 ×10⁻⁶ cm/s |
|  | 222 nM | 7.7 nM | 29 |  | Cc1ncc(-c2nc(Nc3cc(F)c(CN4[C@@H](C)COC[C@@H]4C)cc3F)ncc2F)n1C1CCOCC1 [Ex 8, N-(4-(((3S,5S)-3,5-Dimethylmorpholino)methyl)-2,5-difluorophenyl)-5-fluoro-4-(2-methyl-1-(tetrahydro-2H-pyran-4-yl)-1H-imidazol-5-yl)pyrimidin-2-amine] |  | 40 ×10⁻⁶ cm/s |
|  | 110 nM | 8.1 nM | 14 |  | Cc1ncc(-c2nc(Nc3ccc(CN4CCOCC4)cc3)ncc2F)n1C1CCOCC1 [Reference example, 5-fluoro-4-(2-methyl-1-(tetrahydro-2H-pyran-4-yl)-1H-imidazol-5-yl)-N-(4-(morpholinomethyl)phenyl)pyrimidin-2-amine, reference compound] | 26 ×10⁻⁶ cm/s |  |

From patent publication US20120077813A1, “Imidazole Substituted Pyrimidines Useful in the Treatment of Glycogen Synthase Kinase-3 Related Disorders such as Alzheimer's Disease” (ASTRAZENECA AB, priority 2009, published 2012)
